Data: patent US20240158355A1, “BET SUBFAMILY INHIBITORS AND METHODS USING SAME” (Baylor College of Medicine, priority 2021, published 2024)

Key:
BRDT-BD2 = BRDT-BD2 (Homo sapiens (Human), UniProt Q58F21); assay: AlphaScreen bromodomain proximity assay (competition with biotinylated (+)-JQ1), BRDT-BD2; format: binding
BRDT-BD1 = BRDT-BD1 (Homo sapiens (Human), UniProt Q58F21); assay: AlphaScreen bromodomain proximity assay (competition with biotinylated (+)-JQ1), BRDT-BD1; format: binding; settings: NE: no effect at 10 μM

SMILES	IC50 (BRDT-BD2)	IC50 (BRDT-BD1)
CNC(=O)c1ccc(C(=O)Nc2cc(NC(=O)c3ccc4c(c3)c(-c3ccc(OC)cc3)nn4C)ccc2C)cc1 [compound 11]	0.521 µM	> 10 µM
CNC(=O)c1ccc(C(=O)Nc2cc(NC(=O)c3ccc4c(c3)c(-c3cnc(N)nc3)nn4C)ccc2C)cc1 [compound 13, N^1-(5-(3-(2-Aminopyrimidin-5-yl)-1-methyl-1H-indazole-5-carboxamido)-2-methylphenyl)-N^4-methylterephthalamide]	0.139 µM	> 10 µM
CCn1nc(-c2ccc(N)nc2)c2cc(C(=O)Nc3ccc(C)c(NC(C)=O)c3)ccc21 [compound 18, N-(3-Acetamido-4-methylphenyl)-3-(6-aminopyridin-3-yl)-1-ethyl-1H-indazole-5-carboxamide]	0.079 µM	> 10 µM
CC(=O)Nc1cc(NC(=O)c2ccc3c(c2)c(-c2ccc(N)nc2)nn3C(C)C)ccc1C [compound 19, N-(3-Acetamido-4-methylphenyl)-3-(6-aminopyridin-3-yl)-1-isopropyl-1H-indazole-5-carboxamide]	0.253 µM	> 10 µM
COc1ccc(NC(=O)c2ccc3c(c2)c(-c2ccc(N)cc2C)nn3C)cc1NC(=O)c1ccccc1 [compound 23, 3-(4-Amino-2-methylphenyl)-N-(3-benzamido-4-methoxyphenyl)-1-methyl-1H-indazole-5-carboxamide]	0.035 µM	> 10 µM
COc1ccc(NC(=O)c2ccc3c(c2)c(-c2ccc(N)cc2C)nn3C)cc1 [compound 24, 3-(4-Amino-2-methylphenyl)-N-(4-methoxyphenyl)-1-methyl-1H-indazole-5-carboxamide]	0.054 µM	> 10 µM
Cc1cc(N)ccc1-c1nn(C)c2ccc(C(=O)Nc3ccccc3)cc12 [compound 25, 3-(4-Amino-2-methylphenyl)-1-methyl-N-phenyl-1H-indazole-5-carboxamide]	0.09 µM	> 10 µM
COc1ccc(NC(=O)c2ccc3c(c2)c(-c2cc4ccccc4n2C)nn3C)cc1Br [compound 68, N-(3-Bromo-4-methoxyphenyl)-1-methyl-3-(1-methyl-1H-indol-2-yl)-1H-indazole-5-carboxamide]	0.274 µM	–
COc1ccc(NC(=O)c2ccc3c(c2)c(-c2cc4ccccc4n2C)nn3C)cc1I [compound 69, N-(3-Iodo-4-methoxyphenyl)-1-methyl-3-(1-methyl-1H-indol-2-yl)-1H-indazole-5-carboxamide]	0.502 µM	–
COc1ccc(NC(=O)c2ccc3c(c2)c(-c2cc4ccccc4n2C)nn3C)cc1C(F)(F)F [compound 70, N-(4-Methoxy-3-(trifluoromethyl)phenyl)-1-methyl-3-(1-methyl-1H-indol-2-yl)-1H-indazole-5-carboxamide]	0.626 µM	–
COc1ccc(NC(=O)c2ccc3c(c2)c(-c2cc4ccccc4n2C)nn3C)cc1C#N [compound 71, N-(3-Cyano-4-methoxyphenyl)-1-methyl-3-(1-methyl-1H-indol-2-yl)-1H-indazole-5-carboxamide]	0.168 µM	–
COc1ccc(NC(=O)c2ccc3c(c2)c(-c2cc4ccccc4n2C)nn3C)cc1-c1ccccc1 [compound 72, N-(6-Methoxy-[1,1′-biphenyl]-3-yl)-1-methyl-3-(1-methyl-1H-indol-2-yl)-1H-indazole-5-carboxamide]	2.39 µM	–
COc1ccc(NC(=O)c2ccc3c(c2)c(-c2cc4ccccc4n2C)nn3C)cc1S(N)(=O)=O [compound 73, N-(4-Methoxy-3-sulfamoylphenyl)-1-methyl-3-(1-methyl-1H-indol-2-yl)-1H-indazole-5-carboxamide]	0.111 µM	–
COc1ccc(NC(=O)c2ccc3c(c2)c(-c2cc4ccccc4n2C)nn3C)cc1NC(C)=O [compound 74, N-(3-Acetamido-4-methoxyphenyl)-1-methyl-3-(1-methyl-1H-indol-2-yl)-1H-indazole-5-carboxamide]	0.032 µM	–
COc1ccc(NC(=O)c2ccc3c(c2)c(-c2cc4ccccc4n2C)nn3C)c(C(N)=O)c1 [compound 75, N-(2-Carbamoyl-4-methoxyphenyl)-1-methyl-3-(1-methyl-1H-indol-2-yl)-1H-indazole-5-carboxamide]	4.37 µM	–
